Results as given in US6737383B1, “Herbicidal oxadiazolidines” (priority 1999, dated 2004).

Key:
cocklebur = experiment: Test B pre/postemergence cocklebur; assay type: in vivo, Xanthium strumarium
In short: (§1)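 Test chemicals in a non-phytotoxic solvent mixture with surfactant were sprayed preemergence onto planted seeds and postemergence onto plants 2 to 18 cm tall (1- to 4-leaf stage). After twelve to sixteen days in a greenhouse, injury was visually rated against untreated controls from 0 (no effect) to 10 (complete control).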

corn = experiment: Test B pre/postemergence corn; assay type: in vivo, Zea mays
In short: as §1

crabgrass = experiment: Test B pre/postemergence crabgrass; assay type: in vivo, Digitaria sanguinalis
In short: as §1

giant foxtail = experiment: Test B pre/postemergence giant foxtail; assay type: in vivo, Setaria faberii
In short: as §1

morningglory = experiment: Test B pre/postemergence morningglory; assay type: in vivo, Ipomoea hederacea
In short: as §1

pigweed = experiment: Test B pre/postemergence pigweed; assay type: in vivo, Amaranthus retroflexus
In short: as §1

rape = experiment: Test B pre/postemergence rape; assay type: in vivo, Brassica napus
In short: as §1

soybean = experiment: Test B pre/postemergence soybean; assay type: in vivo, Glycine max
In short: as §1

sugar beet = experiment: Test B pre/postemergence sugar beet; assay type: in vivo, Beta vulgaris
In short: as §1

velvetleaf = experiment: Test B pre/postemergence velvetleaf; assay type: in vivo, Abutilon theophrasti
In short: as §1

wheat = experiment: Test B pre/postemergence wheat; assay type: in vivo, Triticum aestivum
In short: as §1

wild oat = experiment: Test B pre/postemergence wild oat; assay type: in vivo, Avena fatua
In short: as §1

purple nutsedge = experiment: Test B pre/postemergence purple nutsedge; assay type: in vivo, Cyperus rotundus
In short: as §1

rice = experiment: Test B flood test rice; assay type: in vivo, Oryza sativa
In short: (§2)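 Flood test on plants grown to the 2-leaf stage; treated plants kept in greenhouse twelve to sixteen days, then visually rated against controls on a 0 (no effect) to 10 (complete control) scale.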

smallflower flatsedge = experiment: Test B flood test smallflower flatsedge; assay type: in vivo, Cyperus difformis
In short: as §2

duck salad = experiment: Test B flood test duck salad; assay type: in vivo, Heteranthera limosa
In short: as §2

[1] = Postemergence, Rate 125 g/ha, scale of 0 to 10 where 0 is no effect and 10 is complete control
[2] = Preemergence, Rate 62 g/ha, scale 0 to 10 (0 no effect, 10 complete control)
[3] = Preemergence, Rate 125 g/ha, 0 is no effect, 10 is complete control
[4] = Preemergence, Rate 500 g/ha, scale 0 to 10 (0 no effect, 10 complete control)
[5] = Rate 62 g/ha, Postemergence, scale of 0 to 10 where 0 is no effect and 10 is complete control
[6] = Rate 250 g/ha, Postemergence, scale 0 to 10, 0 is no effect, 10 is complete control
[7] = Rate 500 g/ha, Postemergence, scale 0 to 10
[8] = Preemergence, Rate 250 g/ha, scale 0 to 10, 0 is no effect, 10 is complete control
[9] = Postemergence (flood test species), Rate 125 g/ha, scale of 0 to 10 where 0 is no effect and 10 is complete control
[10] = Rate 62 g/ha, Postemergence section, flood test species, scale of 0 to 10 where 0 is no effect and 10 is complete control
[11] = Rate 250 g/ha, Postemergence (flood test), scale 0 to 10, 0 is no effect, 10 is complete control
[12] = Rate 500 g/ha, listed under Postemergence (flood test species), scale 0 to 10

COc1ccccc1Cn1c(=O)on(C(=O)N(c2ccc(F)cc2)C(C)C)c1=O [Compound 143]
Cocklebur plant response rating (cocklebur; [1]): 3 | Cocklebur plant response rating (cocklebur; [2]): 0 | Cocklebur plant response rating (0 to 10 scale) (cocklebur; [3]): 0 | Cocklebur plant response rating (cocklebur; [4]): 0 | Cocklebur plant response rating (cocklebur; [5]): 1 | Plant response rating, Cocklebur (cocklebur; [6]): 3 | Cocklebur plant response rating (cocklebur; [7]): 4 | Corn plant response rating (corn; [1]): 0 | Corn plant response rating (corn; [2]): 0 | Corn plant response rating (0 to 10 scale) (corn; [3]): 0 | Corn plant response rating (corn; [8]): 0 | Corn plant response rating (corn; [4]): 0 | Corn plant response rating (corn; [5]): 0 | Plant response rating, Corn (corn; [6]): 0 | Corn plant response rating (corn; [7]): 0 | Crabgrass plant response rating (crabgrass; [1]): 8 | Crabgrass plant response rating (crabgrass; [2]): 3 | Crabgrass plant response rating (0 to 10 scale) (crabgrass; [3]): 7 | Crabgrass plant response rating (crabgrass; [8]): 8 | Crabgrass plant response rating (crabgrass; [4]): 10 | Crabgrass plant response rating (crabgrass; [5]): 1 | Plant response rating, Crabgrass (crabgrass; [6]): 8 | Crabgrass plant response rating (crabgrass; [7]): 9 | Giant foxtail plant response rating (giant foxtail; [1]): 2 | Giant foxtail plant response rating (giant foxtail; [2]): 3 | Giant foxtail plant response rating (0 to 10 scale) (giant foxtail; [3]): 9 | Giant foxtail plant response rating (giant foxtail; [8]): 9 | Giant foxtail plant response rating (giant foxtail; [4]): 10 | Giant foxtail plant response rating (giant foxtail; [5]): 0 | Plant response rating, Giant foxtail (giant foxtail; [6]): 5 | Giant foxtail plant response rating (giant foxtail; [7]): 7 | Morningglory plant response rating (morningglory; [1]): 6 | Morningglory plant response rating (morningglory; [2]): 0 | Morningglory plant response rating (0 to 10 scale) (morningglory; [3]): 0 | Morningglory plant response rating (morningglory; [8]): 0 | Morningglory plant response rating (morningglory; [4]): 0 | Morningglory plant response rating (morningglory; [5]): 3 | Plant response rating, Morningglory (morningglory; [6]): 8 | Morningglory plant response rating (morningglory; [7]): 8 | Redroot pigweed plant response rating (pigweed; [1]): 5 | Redroot pigweed plant response rating (0 to 10 scale) (pigweed; [3]): 0 | Redroot pigweed plant response rating (pigweed; [8]): 4 | Redroot pigweed plant response rating (pigweed; [4]): 10 | Redroot pigweed plant response rating (pigweed; [5]): 3 | Plant response rating, Redroot pigweed (pigweed; [6]): 5 | Redroot pigweed plant response rating (pigweed; [7]): 6 | Rape plant response rating (rape; [1]): 0 | Rape plant response rating (rape; [2]): 0 | Rape plant response rating (0 to 10 scale) (rape; [3]): 3 | Rape plant response rating (rape; [8]): 4 | Rape plant response rating (rape; [4]): 6 | Rape plant response rating (rape; [5]): 0 | Plant response rating, Rape (rape; [6]): 0 | Rape plant response rating (rape; [7]): 3 | Soybean plant response rating (soybean; [1]): 3 | Soybean plant response rating (soybean; [2]): 0 | Soybean plant response rating (0 to 10 scale) (soybean; [3]): 0 | Soybean plant response rating (soybean; [8]): 0 | Soybean plant response rating (soybean; [4]): 1 | Soybean plant response rating (soybean; [5]): 3 | Plant response rating, Soybean (soybean; [6]): 4 | Soybean plant response rating (soybean; [7]): 5 | Sugarbeets plant response rating (sugar beet; [1]): 6 | Sugarbeets plant response rating (sugar beet; [2]): 0 | Sugarbeets plant response rating (0 to 10 scale) (sugar beet; [3]): 1 | Sugarbeets plant response rating (sugar beet; [8]): 3 | Sugarbeets plant response rating (sugar beet; [4]): 9 | Sugarbeets plant response rating (sugar beet; [5]): 1 | Plant response rating, Sugarbeets (sugar beet; [6]): 6 | Sugarbeets plant response rating (sugar beet; [7]): 6 | Velvetleaf plant response rating (velvetleaf; [1]): 2 | Velvetleaf plant response rating (velvetleaf; [2]): 0 | Velvetleaf plant response rating (0 to 10 scale) (velvetleaf; [3]): 0 | Velvetleaf plant response rating (velvetleaf; [8]): 0 | Velvetleaf plant response rating (velvetleaf; [4]): 0 | Velvetleaf plant response rating (velvetleaf; [5]): 2 | Plant response rating, Velvetleaf (velvetleaf; [6]): 2 | Velvetleaf plant response rating (velvetleaf; [7]): 2 | Wheat plant response rating (wheat; [1]): 0 | Wheat plant response rating (wheat; [2]): 0 | Wheat plant response rating (0 to 10 scale) (wheat; [3]): 0 | Wheat plant response rating (wheat; [8]): 0 | Wheat plant response rating (wheat; [4]): 0 | Wheat plant response rating (wheat; [5]): 0 | Plant response rating, Wheat (wheat; [6]): 0 | Wheat plant response rating (wheat; [7]): 0 | Wild oats plant response rating (wild oat; [1]): 0 | Wild oats plant response rating (wild oat; [2]): 0 | Wild oats plant response rating (0 to 10 scale) (wild oat; [3]): 5 | Wild oats plant response rating (wild oat; [8]): 5 | Wild oats plant response rating (wild oat; [4]): 5 | Wild oats plant response rating (wild oat; [5]): 0 | Plant response rating, Wild oats (wild oat; [6]): 0 | Wild oats plant response rating (wild oat; [7]): 0 | Nutsedge plant response rating (purple nutsedge; [1]): 0 | Nutsedge plant response rating (purple nutsedge; [2]): 0 | Nutsedge plant response rating (0 to 10 scale) (purple nutsedge; [3]): 0 | Nutsedge plant response rating (purple nutsedge; [8]): 0 | Nutsedge plant response rating (purple nutsedge; [4]): 0 | Nutsedge plant response rating (purple nutsedge; [5]): 0 | Plant response rating, Nutsedge (purple nutsedge; [6]): 0 | Nutsedge plant response rating (purple nutsedge; [7]): 0 | Rice plant response rating (rice; [9]): 0 | Rice plant response rating (rice; [10]): 0 | Plant response rating, Rice (rice; [11]): 2 | Rice plant response rating (rice; [12]): 4 | S. Flatsedge plant response rating (smallflower flatsedge; [9]): 0 | S. Flatsedge plant response rating (smallflower flatsedge; [10]): 0 | Plant response rating, S. Flatsedge (smallflower flatsedge; [11]): 2 | S. Flatsedge plant response rating (smallflower flatsedge; [12]): 8 | Ducksalad plant response rating (duck salad; [9]): 0 | Ducksalad plant response rating (duck salad; [10]): 0 | Plant response rating, Ducksalad (duck salad; [11]): 0 | Ducksalad plant response rating (duck salad; [12]): 5
